Assay results as given in patent US10385065B2, “Antibacterial compounds” (priority 2014, dated 2019).
Converted amounts (≈) assume the structure as drawn. Where two headings read alike, the source gives them in different places.

Assays:
Type in all cases: cell-based
[1] = system: Haemophilus influenzae ATCC 49247; experiment: MIC, H. influenzae ATCC 49247; conditions: ATCC49247, Table 4
[2] = system: S. aureus SACPX1-SP25 MSSA - FQ resistant; experiment: microbe, parasite or virus in culture; conditions: Staphylococcus aureus, ATCC 29213 / MSSA, read-out: MIC S. aureus SACPX1-SP25 MSSA - FQ resistant (isogenic mutant of ATCC 29213)
[3] = system: S. epidermidis NRS101 MRSE; experiment: MIC, S. epidermidis NRS101; conditions: Staphylococcus epidermidis; Table 2; read-out: MIC S. epidermidis NRS101 MRSE AMG, ERY resistant
[4] = system: S. aureus NRS482 MRSA FQ resistant; experiment: MIC, S. aureus NRS482; conditions: Staphylococcus aureus; Table 2
[5] = system: S. aureus NRS1 MRSA; experiment: MIC, S. aureus NRS1; conditions: Staphylococcus aureus; Table 2; read-out: MIC S. aureus NRS1 MRSA AMG & TET resistant
[6] = system: S. aureus (MRSA) ATCC 43300; experiment: MIC, S. aureus ATCC 43300; conditions: Staphylococcus aureus; Table 2; read-out: MIC S. aureus (MRSA) ATCC 43300 Heterogeneous MRSA strain
[7] = system: S. aureus VRS1 MRSA VAN resistant; experiment: MIC, S. aureus VRS1; conditions: Staphylococcus aureus, Table 2
[8] = system: Enterococcus faecium ATCC 19434; experiment: MIC, E. faecium ATCC 19434; conditions: ATCC19434, Table 2
[9] = system: Staphylococcus aureus ATCC 29213; experiment: MIC, broth microdilution, S. aureus ATCC 29213
[10] = system: S. aureus NRS127 MRSA LZD resistant; experiment: MIC, S. aureus NRS127; conditions: Staphylococcus aureus; Table 2
[11] = system: Escherichia coli ATCC 25922; experiment: MIC, broth microdilution, E. coli ATCC 25922; conditions: ATCC25922, Table 1, wild type strain
[12] = system: human hepatic cell line (HepG2 ATCC HB-8065); experiment: Human cell viability assay (CellTiter-Glo), HepG2; conditions: HepG2, 24 h incubation, tested over 1-128 μg/mL, read-out: IC50 values against HepG2
In short: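 HepG2 seeded at 20,000 cells/well, then after 24 h given two-fold serial dilutions (1-128 μg/mL, 1% DMSO) in DMEM with 0.001% FBS and 0.3% albumin. After 24 h at 37 °C, ATP luminescence (CellTiter-Glo) read; IC50 is the concentration halving viability.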

[13] = system: Neisseria gonorrhoeae ATCC 49226; experiment: MIC, N. gonorrhoeae ATCC 49226; conditions: ATCC49226, Table 4, 24 h incubation
[14] = system: S. aureus NRS100 MRSA; experiment: MIC, S. aureus NRS100; conditions: Staphylococcus aureus; Table 2
[15] = system: Legionella pneumophila ATCC 33152; experiment: microbe, parasite or virus in culture; conditions: ATCC33152, 48 h, read-out: MIC Legionella pneumophila ATCC 33152
[16] = ATCC29213, Table 1, wild type strain, read-out: MIC S. aureus ATCC 29213
[17] = ATCC 29213 / MSSA, Table 2, read-out: MIC S. aureus (MSSA) ATCC 29213 CLSI control strain

Compound	MIC [1]	MIC [2]	MIC [3]	MIC [4]	MIC [5]	MIC [6]	MIC [7]	MIC [8]	MIC [9, 16]	MIC [9, 17]	MIC [10]	MIC [11]	IC50 [12]	MIC [13]	MIC [14]	MIC [15]
Cc1c(-c2cnc3[nH]ncc3c2)ccc2c3ocnc3c(=O)n(C3CC3)c12 [Compound 20, 5-cyclopropyl-6-methyl-7-(1H-pyrazolo[3,4-b]pyridine-5-yl)oxazolo[4,5-c]quinolin-4-one]	< 1 µg/mL	< 1 µg/mL	< 1 µg/mL	< 1 µg/mL	< 1 µg/mL	< 1 µg/mL	< 1 µg/mL	1 to 10 µg/mL (≈ 2.8 to 28 µM)	< 1 µg/mL	< 1 µg/mL	< 1 µg/mL	1 to 10 µg/mL (≈ 2.8 to 28 µM)	> 100 µg/mL			
Cc1c(-c2cnc3[nH]nc(N)c3c2)ccc2c3ocnc3c(=O)n(C3CC3)c12 [Compound 21, 7-(3-amino-1H-pyrazolo[3,4-b]pyridine-5-yl)-5-cyclopropyl-6-methyl-oxazolo[4,5-c]quinolin-4-one]	1 to 10 µg/mL (≈ 2.69 to 26.9 µM)		< 1 µg/mL	< 1 µg/mL	< 1 µg/mL	< 1 µg/mL	< 1 µg/mL	1 to 10 µg/mL (≈ 2.69 to 26.9 µM)	< 1 µg/mL	< 1 µg/mL	< 1 µg/mL	10 to 100 µg/mL (≈ 26.9 to 269 µM)	10 to 100 µg/mL (≈ 26.9 to 269 µM)			
Cc1nc2c(=O)n(C3CC3)c3c(C)c(-c4ccc(N)nc4)ccc3c2o1 [Compound 23, 7-(6-amino-3-pyridyl)-5-cyclopropyl-2,6-dimethyl-oxazolo[4,5-c]quinolin-4-one]	1 to 10 µg/mL (≈ 2.89 to 28.9 µM)	1 to 10 µg/mL (≈ 2.89 to 28.9 µM)	1 to 10 µg/mL (≈ 2.89 to 28.9 µM)	1 to 10 µg/mL (≈ 2.89 to 28.9 µM)	1 to 10 µg/mL (≈ 2.89 to 28.9 µM)	< 1 µg/mL	10 to 100 µg/mL (≈ 28.9 to 289 µM)	> 100 µg/mL	< 1 µg/mL	< 1 µg/mL	1 to 10 µg/mL (≈ 2.89 to 28.9 µM)	1 to 10 µg/mL (≈ 2.89 to 28.9 µM)		1 to 10 µg/mL (≈ 2.89 to 28.9 µM)		
Cc1c(-c2cc(F)c(CO)cc2F)ccc2c3ocnc3c(=O)n(C3CC3)c12 [Compound 25, 5-cyclopropyl-7-[2,5-difluoro-4-(hydroxymethyl)phenyl]-6-methyl-oxazolo[4,5-c]quinolin-4-one]	< 1 µg/mL		< 1 µg/mL	< 1 µg/mL	< 1 µg/mL	< 1 µg/mL	< 1 µg/mL	10 to 100 µg/mL (≈ 26.2 to 262 µM)	< 1 µg/mL	< 1 µg/mL	< 1 µg/mL	1 to 10 µg/mL (≈ 2.62 to 26.2 µM)	10 to 100 µg/mL (≈ 26.2 to 262 µM)			
Cc1nc2c(=O)n(C3CC3)c3c(C)c(-c4ccc(C(N)=O)cc4)ccc3c2o1 [Compound 26]	1 to 10 µg/mL (≈ 2.68 to 26.8 µM)		< 1 µg/mL	1 to 10 µg/mL (≈ 2.68 to 26.8 µM)	1 to 10 µg/mL (≈ 2.68 to 26.8 µM)	1 to 10 µg/mL (≈ 2.68 to 26.8 µM)	1 to 10 µg/mL (≈ 2.68 to 26.8 µM)	> 100 µg/mL	< 1 µg/mL	< 1 µg/mL	1 to 10 µg/mL (≈ 2.68 to 26.8 µM)	> 100 µg/mL	> 100 µg/mL			
Cc1nc2c(=O)n(C3CC3)c3c(C)c(-c4ccc5cn[nH]c5c4)ccc3c2o1 [Compound 27, 5-cyclopropyl-7-(l H-indazol-6-yl)-2,6-dimethyl-oxazolo[4,5-c]quinolin-4-one]	1 to 10 µg/mL (≈ 2.7 to 27 µM)		< 1 µg/mL	< 1 µg/mL	1 to 10 µg/mL (≈ 2.7 to 27 µM)	< 1 µg/mL	10 to 100 µg/mL (≈ 27 to 270 µM)	> 100 µg/mL	< 1 µg/mL	< 1 µg/mL	10 to 100 µg/mL (≈ 27 to 270 µM)	1 to 10 µg/mL (≈ 2.7 to 27 µM)	10 to 100 µg/mL (≈ 27 to 270 µM)			
Cc1nc2c(=O)n(C3CC3)c3cc(N4CCC(C(C)N)C4)c(F)cc3c2o1 (centres unmarked) [Compound 54, 7-[3-(1-aminoethyl)pyrrolidin-1-yl]-5-cyclopropyl-8-fluoro-2-methyl-oxazolo[4,5-c]quinolin-4-one]	1 to 10 µg/mL (≈ 2.7 to 27 µM)							10 to 100 µg/mL (≈ 27 to 270 µM)	1 to 10 µg/mL (≈ 2.7 to 27 µM)	1 to 10 µg/mL (≈ 2.7 to 27 µM)		1 to 10 µg/mL (≈ 2.7 to 27 µM)	10 to 100 µg/mL (≈ 27 to 270 µM)		1 to 10 µg/mL (≈ 2.7 to 27 µM)	
Nc1cc(F)c(-c2cc3c(cc2F)c2ocnc2c(=O)n3C2CC2)cc1F [Compound 69, 7-(4-amino-2,5-difluoro-phenyl)-5-cyclopropyl-8-fluoro-oxazolo[4,5-c]quinolin-4-one]	< 1 µg/mL		1 to 10 µg/mL (≈ 2.69 to 26.9 µM)	1 to 10 µg/mL (≈ 2.69 to 26.9 µM)		< 1 µg/mL	< 1 µg/mL	> 100 µg/mL	< 1 µg/mL	< 1 µg/mL	< 1 µg/mL	1 to 10 µg/mL (≈ 2.69 to 26.9 µM)				
Cc1nc2c(=O)n3c4c(c(N5CC[C@H](CN)C5)c(F)cc4c2o1)OC[C@@H]3C [Compound 89, (2S)-6-[(3R)-3-(aminomethyl)pyrrolidin-1-yl]-7-fluoro-2,12-dimethyl-4,11-dioxa-1,13-diazatetracyclo[7.6.1.0^5,^16.0^10,^14]hexadeca-5(16),6,8,10(14),12-pentaen-15-one]	1 to 10 µg/mL (≈ 2.69 to 26.9 µM)	1 to 10 µg/mL (≈ 2.69 to 26.9 µM)		1 to 10 µg/mL (≈ 2.69 to 26.9 µM)	1 to 10 µg/mL (≈ 2.69 to 26.9 µM)	1 to 10 µg/mL (≈ 2.69 to 26.9 µM)	1 to 10 µg/mL (≈ 2.69 to 26.9 µM)	10 to 100 µg/mL (≈ 26.9 to 269 µM)	1 to 10 µg/mL (≈ 2.69 to 26.9 µM)	1 to 10 µg/mL (≈ 2.69 to 26.9 µM)	10 to 100 µg/mL (≈ 26.9 to 269 µM)	1 to 10 µg/mL (≈ 2.69 to 26.9 µM)	10 to 100 µg/mL (≈ 26.9 to 269 µM)			1 to 10 µg/mL (≈ 2.69 to 26.9 µM)
C[C@H]1COc2c(-c3ccc(N)nc3)ccc3c4ocnc4c(=O)n1c23 [Compound 95, (-2S)-6-(6-aminopyridin-3-yl)-2-methyl-4,11-dioxa-1,13-diazatetracyclo[7.6.1.0^5,^16.0^10,^14]hexadeca-5(16),6,8,10(14),12-pentaen-15-one]	< 1 µg/mL		1 to 10 µg/mL (≈ 2.99 to 29.9 µM)	1 to 10 µg/mL (≈ 2.99 to 29.9 µM)	1 to 10 µg/mL (≈ 2.99 to 29.9 µM)	1 to 10 µg/mL (≈ 2.99 to 29.9 µM)	1 to 10 µg/mL (≈ 2.99 to 29.9 µM)	10 to 100 µg/mL (≈ 29.9 to 299 µM)	1 to 10 µg/mL (≈ 2.99 to 29.9 µM)	1 to 10 µg/mL (≈ 2.99 to 29.9 µM)	1 to 10 µg/mL (≈ 2.99 to 29.9 µM)	1 to 10 µg/mL (≈ 2.99 to 29.9 µM)	> 100 µg/mL			
Cc1c(-c2cc(F)c(N)cc2F)ccc2c3scnc3c(=O)n(C3CC3)c12 [Compound 108, 7-(4-amino-2,5-difluorophenyl)-5-cyclopropyl-6-methyl-thiazolo[4,5-c]quinolin-4-one]	< 1 µg/mL	< 1 µg/mL	< 1 µg/mL	< 1 µg/mL	< 1 µg/mL	< 1 µg/mL	< 1 µg/mL	10 to 100 µg/mL (≈ 26.1 to 261 µM)	< 1 µg/mL	< 1 µg/mL	< 1 µg/mL	1 to 10 µg/mL (≈ 2.61 to 26.1 µM)	10 to 100 µg/mL (≈ 26.1 to 261 µM)			
Cc1c(-c2ccc3[nH]ncc3c2)ccc2c3scnc3c(=O)n(C3CC3)c12 [Compound 109, 5-Cyclopropyl-7-(1H-indazol-5-yl)-6-methyl-thiazolo[4,5-c]quinolin-4-one]	1 to 10 µg/mL (≈ 2.68 to 26.8 µM)		1 to 10 µg/mL (≈ 2.68 to 26.8 µM)	< 1 µg/mL	< 1 µg/mL	< 1 µg/mL	< 1 µg/mL	> 100 µg/mL	< 1 µg/mL	< 1 µg/mL	< 1 µg/mL	< 1 µg/mL				
